Data from US20230085307A1, “PYRIDAZINONE COMPOUND AND HERBICIDE” (NISSAN CHEMICAL CORPORATION, priority 2019, published 2023).

Tests used:
[1] = test system: persian speedwell; assay: Test Example 5: herbicidal effect by foliage application, plastic box (Table 20, symbol R); format: in vivo, Persian speedwell (Veronica persica); conditions: foliage application, 320 g/ha
Method in brief: (§1)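 Foliar spray test: emulsion formulation diluted in water to a set application rate, sprayed onto 14-day-old plants raised in diluvial soil at 25° C to 30° C under glass. Both herbicidal effect and crop effect rated visually three weeks later.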

[2] = test system: Japanese bulrush; assay: Test Example 2: herbicidal activity, application during weed generation under submerged conditions (Table 17, symbol B); format: in vivo, Japanese bulrush (Schoenoplectus juncoides); conditions: AAH 320 g/ha; application during weed generation, submerged conditions
Method in brief: (§2)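 3-wk visual-criteria score after one water-surface dose. Emulsion formulation, water-diluted to set rate; applied at 1–2 leaf stage; alluvial soil, 4 cm standing water; seeds co-sown; greenhouse 25–30° C.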

[3] = test system: oval-leafed pondweed; assay: Test Example 2: herbicidal activity, application during weed generation under submerged conditions (Table 17, symbol C); format: in vivo, oval-leafed pondweed (Monochoria vaginalis); conditions: AAH 320 g/ha; application during weed generation, submerged conditions
Method in brief: as §2

[4] = test system: barnyard grass; assay: Test Example 5: herbicidal effect by foliage application, plastic box (Table 20, symbol H); format: in vivo, barnyard grass (Echinochloa crus-galli); conditions: foliage application, 320 g/ha
Method in brief: as §1

[5] = test system: blackgrass; assay: Test Example 5: herbicidal effect by foliage application, plastic box (Table 20, symbol J); format: in vivo, blackgrass (Alopecurus myosuroides); conditions: foliage application, 320 g/ha
Method in brief: as §1

[6] = test system: false cleavers; assay: Test Example 5: herbicidal effect by foliage application, plastic box (Table 20, symbol Q); format: in vivo, false cleavers (Galium spurium); conditions: foliage application, 320 g/ha
Method in brief: as §1

[7] = test system: green foxtail; assay: Test Example 5: herbicidal effect by foliage application, plastic box (Table 20, symbol G); format: in vivo, green foxtail (Setaria viridis); conditions: foliage application, 320 g/ha
Method in brief: as §1

[8] = test system: Chinese sprangletop; assay: Test Example 3: herbicidal effect by foliage application, Wagner pot (Table 18, symbol D); format: in vivo, chinese sprangletop (Leptochloa chinensis)
Method in brief: (§3)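 Plants were sown in alluvial soil held under 0.1–0.5 cm standing water and grown 14 days in a greenhouse at 25–30 °C. An emulsifiable formulation, water-diluted to the set dose, was then sprayed onto the foliage, and effects were scored three weeks later using previously defined criteria.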

[9] = test system: wild oat; assay: Test Example 5: herbicidal effect by foliage application, plastic box (Table 20, symbol I); format: in vivo, wild oat (Avena fatua); conditions: foliage application, 320 g/ha
Method in brief: as §1

[10] = test system: chickweed; assay: Test Example 5: herbicidal effect by foliage application, plastic box (Table 20, symbol P); format: in vivo, common chickweed (Stellaria media); conditions: foliage application, 320 g/ha
Method in brief: as §1

[11] = test system: redroot pigweed; assay: Test Example 5: herbicidal effect by foliage application, plastic box (Table 20, symbol N); format: in vivo, redroot pigweed (Amaranthus retroflexus); conditions: foliage application, 320 g/ha, evaluated three weeks after application
Method in brief: as §1

[12] = test system: rice flat sedge; assay: Test Example 3: herbicidal effect by foliage application, Wagner pot (Table 18, symbol E); format: in vivo, rice flat sedge (Cyperus iria)
Method in brief: as §3

[13] = test system: Italian ryegrass; assay: Test Example 5: herbicidal effect by foliage application, plastic box (Table 20, symbol K); format: in vivo, Italian ryegrass (Lolium multiflorum); conditions: foliage application, 320 g/ha
Method in brief: as §1

[14] = test system: velvetleaf; assay: Test Example 5: herbicidal effect by foliage application, plastic box (Table 20, symbol M); format: in vivo, velvetleaf (Abutilon theophrasti); conditions: foliage application, 320 g/ha
Method in brief: as §1

[15] = test system: lambsquarters; assay: Test Example 5: herbicidal effect by foliage application, plastic box (Table 20, symbol O); format: in vivo, lambsquarters (Chenopodium album); conditions: foliage application, 320 g/ha
Method in brief: as §1

[16] = test system: late watergrass; assay: Test Example 2: herbicidal activity, application during weed generation under submerged conditions (Table 17, symbol A); format: in vivo, late watergrass (Echinochloa oryzicola); conditions: AAH 320 g/ha; application during weed generation, submerged conditions
Method in brief: as §2

[17] = test system: windgrass; assay: Test Example 5: herbicidal effect by foliage application, plastic box (Table 20, symbol L); format: in vivo, windgrass (Apera spica-venti); conditions: foliage application, 320 g/ha, evaluated three weeks after application
Method in brief: as §1

[18] = test system: barnyard grass; assay: Test Example 3: herbicidal effect by foliage application, Wagner pot (Table 18, symbol H); format: in vivo, barnyard grass (Echinochloa crus-galli)
Method in brief: as §3

[19] = test system: southern crabgrass; assay: Test Example 5: herbicidal effect by foliage application, plastic box (Table 20, symbol F); format: in vivo, southern crabgrass (Digitaria ciliaris); conditions: foliage application, 320 g/ha
Method in brief: as §1

[20] = test system: Japanese bulrush; assay: Test Example 1: herbicidal activity, application before weed generation under submerged conditions (Table 16, symbol B); format: in vivo, Japanese bulrush (Schoenoplectus juncoides); conditions: amount of applied herbicide 320 g/ha
Method in brief: (§4)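 Submerged Wagner pots (alluvial soil, 4 cm water) sown with weed seeds and planted with 2.5-leaf rice seedlings; emulsifiable concentrate diluted in water applied to water surface on sowing day. Held in greenhouse at 25-30 °C; injury scored 0-5 by herbicidal rate after three weeks.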

[21] = test system: late watergrass; assay: Test Example 1: herbicidal activity, application before weed generation under submerged conditions (Table 16, symbol A); format: in vivo, late watergrass (Echinochloa oryzicola); conditions: amount of applied herbicide 320 g/ha
Method in brief: as §4

[22] = test system: oval-leafed pondweed; assay: Test Example 1: herbicidal activity, application before weed generation under submerged conditions (Table 16, symbol C); format: in vivo, oval-leafed pondweed (Monochoria vaginalis); conditions: amount of applied herbicide 320 g/ha
Method in brief: as §4

[23] = evaluated three weeks after application
[24] = amount of applied herbicide 320 g/ha

`CCCC(=O)Oc1c(C)nn(C)c(=O)c1-c1c(-c2c(OC)cccc2OC)sc2ccc(Cl)cc12` [2-122] was tested, and the “herbicidal effect on R: persian speedwell” value [1, 23] was 1 (Herbicidal rate of 5% or more and less than 20%), the “herbicidal effect rating, B: Japanese bulrush” value [2] was 0 (Herbicidal rate of 5% or less (almost no effect)) and the “herbicidal effect rating, C: oval-leafed pondweed” value [3] was 2 (Herbicidal rate of 20% or more and less than 40%). The “herbicidal effect on H: barnyard grass” value [4, 23] was 0 (Herbicidal rate of 5% or less (almost no effect)), the “herbicidal effect on J: blackgrass” value [5, 23] was 0 (Herbicidal rate of 5% or less (almost no effect)) and the “herbicidal effect on Q: false cleavers” value [6, 23] was 0 (Herbicidal rate of 5% or less (almost no effect)). For the same compound, the “herbicidal effect on G: green foxtail” value [7, 23] was 0 (Herbicidal rate of 5% or less (almost no effect)), the “herbicidal effect on D: Chinese sprangletop” value [8, 24] was 0 (Herbicidal rate of 5% or less (almost no effect)) and the “herbicidal effect on I: wild oat” value [9, 23] was 0 (Herbicidal rate of 5% or less (almost no effect)). The “herbicidal effect on P: chickweed” value [10, 23] was 3 (Herbicidal rate of 40% or more and less than 70%), the “herbicidal effect on N: redroot pigweed” value [11] was 0 (Herbicidal rate of 5% or less (almost no effect)) and the “herbicidal effect on E: rice flat sedge” value [12, 24] was 0 (Herbicidal rate of 5% or less (almost no effect)). The “herbicidal effect on K: Italian ryegrass” value [13, 23] was 0 (Herbicidal rate of 5% or less (almost no effect)), the “herbicidal effect on M: velvetleaf” value [14, 23] was 0 (Herbicidal rate of 5% or less (almost no effect)) and the “herbicidal effect on O: lambsquarters” value [15, 23] was 0 (Herbicidal rate of 5% or less (almost no effect)). The “herbicidal effect rating, A: late watergrass” value [16] was 0 (Herbicidal rate of 5% or less (almost no effect)), the “herbicidal effect on L: windgrass” value [17] was 0 (Herbicidal rate of 5% or less (almost no effect)) and the “herbicidal effect on H: barnyard grass” value [18, 24] was 2 (Herbicidal rate of 20% or more and less than 40%). For the same compound, the “herbicidal effect on F: southern crabgrass” value [19, 23] was 0 (Herbicidal rate of 5% or less (almost no effect)).

In the case of `CCCC(=O)Oc1c(C)nn(C)c(=O)c1-c1c(-c2ccc(F)cc2OC)sc2cc(C)ccc12` [3-056], the “R: persian speedwell, herbicidal effect grade” value ([1]; three weeks after application) is reported as 5 (Herbicidal rate of 90% or more (almost completely withered)), the “herbicidal effect rating, B: Japanese bulrush” value [2] is reported as 0 (Herbicidal rate of 5% or less (almost no effect)) and the “herbicidal effect rating, C: oval-leafed pondweed” value [3] is reported as 0 (Herbicidal rate of 5% or less (almost no effect)). For the same compound, the “Herbicidal effect, B: Japanese bulrush” value [20] was 0 (Herbicidal rate of 5% or less (almost no effect)), the “Herbicidal effect, A: late watergrass” value [21] was 3 (Herbicidal rate of 40% or more and less than 70%) and the “H: barnyard grass, herbicidal effect grade” value ([4]; three weeks after application) was 3 (Herbicidal rate of 40% or more and less than 70%). The “J: blackgrass, herbicidal effect grade” value ([5]; three weeks after application) was 2 (Herbicidal rate of 20% or more and less than 40%), the “Q: false cleavers, herbicidal effect grade” value ([6]; three weeks after application) was 4 (Herbicidal rate of 70% or more and less than 90%) and the “G: green foxtail, herbicidal effect grade” value ([7]; three weeks after application) was 4 (Herbicidal rate of 70% or more and less than 90%). The “herbicidal effect on Chinese sprangletop (D)” value ([8]; 320 g/ha) was 1 (Herbicidal rate of 5% or more and less than 20%), the “I: wild oat, herbicidal effect grade” value ([9]; three weeks after application) was 3 (Herbicidal rate of 40% or more and less than 70%) and the “P: chickweed, herbicidal effect grade” value ([10]; three weeks after application) was 5 (Herbicidal rate of 90% or more (almost completely withered)). The “herbicidal effect on rice flat sedge (E)” value ([12]; 320 g/ha) was 3 (Herbicidal rate of 40% or more and less than 70%), the “K: Italian ryegrass, herbicidal effect grade” value ([13]; three weeks after application) was 3 (Herbicidal rate of 40% or more and less than 70%) and the “M: velvetleaf, herbicidal effect grade” value ([14]; three weeks after application) was 2 (Herbicidal rate of 20% or more and less than 40%). For the same compound, the “O: lambsquarters, herbicidal effect grade” value ([15]; three weeks after application) was 2 (Herbicidal rate of 20% or more and less than 40%), the “herbicidal effect rating, A: late watergrass” value [16] was 2 (Herbicidal rate of 20% or more and less than 40%) and the “Herbicidal effect, C: oval-leafed pondweed” value [22] was 0 (Herbicidal rate of 5% or less (almost no effect)). The “herbicidal effect on barnyard grass (H)” value ([18]; 320 g/ha) was 3 (Herbicidal rate of 40% or more and less than 70%) and the “F: southern crabgrass, herbicidal effect grade” value ([19]; three weeks after application) was 3 (Herbicidal rate of 40% or more and less than 70%).
